The assay deals with T1, human PAD4 (Homo sapiens, UniProt Q9UM07).
T1 construct: human PAD4 (NM_012387), A2-P663, was PCR amplified; His-SUMO (N, cleaved yes); made in house; host or cells: E. coli BL21(DE3)
The assay can be described thus: In vitro PAD4 BAEE biochemical assay. To be noted: BAEE substrate 3 mM, 5 nM PAD4, 2 mM calcium chloride; geometric mean of multiple experiments. Summed up:
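Assay was run at 25 °C using 3 mM BAEE and 5 nM human PAD4 after a 30 min compound preincubation; ammonia produced over 2 h was quantified by OPA-derived fluorescence. Full inhibition was defined by 50 µM BB-Cl-Amidine, and IC50 came from variable-slope nonlinear regression.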

T1 sequence (Q9UM07 2-663): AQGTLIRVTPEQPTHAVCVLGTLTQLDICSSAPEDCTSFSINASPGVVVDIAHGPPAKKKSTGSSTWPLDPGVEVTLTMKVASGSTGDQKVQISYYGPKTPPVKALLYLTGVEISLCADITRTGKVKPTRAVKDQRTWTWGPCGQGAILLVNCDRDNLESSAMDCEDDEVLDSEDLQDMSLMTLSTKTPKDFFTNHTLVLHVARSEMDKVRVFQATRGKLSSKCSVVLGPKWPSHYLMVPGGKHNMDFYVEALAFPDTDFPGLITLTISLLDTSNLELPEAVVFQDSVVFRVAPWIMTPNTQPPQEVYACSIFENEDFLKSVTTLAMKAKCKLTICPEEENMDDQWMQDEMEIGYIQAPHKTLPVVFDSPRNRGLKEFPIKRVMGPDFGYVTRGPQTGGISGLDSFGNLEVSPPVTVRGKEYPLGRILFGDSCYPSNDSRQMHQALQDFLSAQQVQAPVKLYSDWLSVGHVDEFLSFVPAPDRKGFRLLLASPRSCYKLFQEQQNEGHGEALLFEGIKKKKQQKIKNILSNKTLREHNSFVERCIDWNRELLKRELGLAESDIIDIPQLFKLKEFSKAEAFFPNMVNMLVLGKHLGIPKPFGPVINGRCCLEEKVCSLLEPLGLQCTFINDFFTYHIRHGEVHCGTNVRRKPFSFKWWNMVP

As for `C[C@H]1NC(=O)[C@@H]2C[C@H]2CCCCCn2c(-c3nc4cc(C(=O)N5CC[C@@H](OC(F)F)[C@@H](N)C5)cc5c4n3CCO5)cc3ccc1nc32` [Example 734, (2~{R},5~{R},7~{R})-14-[6-[(3~{S},4~{R})-3-amino-4-(difluoromethoxy)piperidine-1-carbonyl]-9-oxa-1,3-diazatricyclo[6.3.1.0^{4,12}]dodeca-2,4,6,8(12)-tetraen-2-yl]-2-methyl-3,13,19-triazatetracyclo[11.5.2.0^ {5,7}.0^{16,20}]icosa-1(19), 14,16(20),17-tetraen-4-one], the IC50 amounted to 185 nM.
Next, `COc1cc(C(=O)N2CCC[C@@H](N)C2)cc2nc(-c3cc4ccc5nc4n3C[C@H]3C[C@@H]3COCCC(=O)N[C@@H]5C)n(C)c12` [Example 149, (3~{S},5~{S},12~{R})-18-[5-[(3~{R})-3-aminopiperidine-1-carbonyl]-7-methoxy-1-methyl-benzimidazol-2-yl]-12-methyl-7-oxa-1,11,20-triazatetracyclo[11.5.2.0^{3,5}.0^{16,19}] icosa-13(20),14,16(19),17-tetraen-10-one]: 46 nM; `COc1cc(C(=O)N2CC[C@@H](OC)[C@@H](N)C2)cc2nc(-c3cc4ccc5nc4n3CCCCCc3nccnc3C(=O)N(C)[C@@H]5C)n(C)c12` [Example 855, (2~{R})-17-[5-[(3~{S},4~{R})-3-amino-4-methoxy-piperidine-1-carbonyl]-7-methoxy-1-methyl-benzimidazol-2-yl]-2,3-dimethyl-3,6,9,16,22-pentazatetracyclo[14.5.2.0^ {5,10}.0^1923]tricosa-1(22),, 5(10),6,8,17,19(23),20-heptaen-4-one]: 65 nM.
The figure for `COc1cc(C(=O)N2[C@H]3CC[C@@H]2[C@H](N)C3)cc2nc(-c3cc4ccc5nc4n3CCCCCCCN(C)C(=O)N[C@@H]5C)c(C)n12` [Example 211, (12~{R})-18-[7-[(1~{R},2~{R},4~{S})-2-amino-7-azabicyclo[2.2.1]heptane-7-carbonyl]-5-methoxy-3-methyl-imidazo[1,2-a]pyridin-2-yl]-9,12-dimethyl-1,9,11,20-tetrazatricyclo[11.5.2.0^{16,19}]icosa-13(20),14,16(19),17-tetraen-10-one] is 34 nM.
The figure for `C[C@H]1NC(=O)[C@@H]2C[C@H]2CCCCCn2c(-c3nc4cc(C(=O)N5C[C@H](N)[C@@H]6CC[C@H]5C6)cnc4n3C3CC3)cc3ccc1nc32` [Example 458, (2~{R},5~{R},7~{R})-14-[6-[(1~{S),4~{R},5~{R})-4-amino-2-azabicyclo[3.2.1]octane-2-carbonyl]-3-cyclopropyl-imidazo[4,5-b]pyridin-2-yl]-2-methyl-3,13,19-triazatetracyclo[11.5.2.0^{5,7}.0^{16,20}] icosa-1(19),14,16(20),17-tetraen-4-one] is 23 nM; for `COc1cc(C(=O)N2[C@H]3CC[C@@H]2[C@H](N)C3)cc2nc(-c3cc4ccc5nc4n3CCCCCCN(C)C(=O)N[C@@H]5C)c(C)n12` [Example 212, (11~{R})-17-[7-[(1~{R},2~{R},4~{S})-2-amino-7-azabicyclo[2.2.1]heptane-7-carbonyl]-5-methoxy-3-methyl-imidazo[1,2-a]pyridin-2-yl]-8,11-dimethyl-1,8,10,19-tetrazatricyclo[10.5.2.0^{15,18}]nonadeca-12(19),13,15(18),16-tetraen-9-one] it is 22 nM.
In the case of `COc1nccc2c1C(=O)N[C@H](C)c1ccc3cc(-c4nc5cc(C(=O)N6CC[C@@H](OC)[C@@H](N)C6)cc(OC)c5n4C)n(c3n1)CCCCC2` [Example 863, (2~{R})-17-[5-[(3~{S},4~{R})-3-amino-4-methoxy-piperidine-1-carbonyl]-7-methoxy-1-methyl-benzimidazol-2-yl]-6-methoxy-2-methyl-3,7,16,22-tetrazatetracyclo[14.5.2.0^ {5,10}.0^{19,23}]tricosa-1(22), 5(10),6,8,17,19(23),20-heptaen-4-one], the IC50 was found to be 69 nM.
The figure for `COc1cc(C(=O)N2C[C@H](N)[C@@H]3CC[C@H]2C3)cc2nc(-c3cc4cc(F)c5cc4n3CC(F)(F)CCC[C@@H]3C[C@H]3C(=O)N[C@@H]5C)n(C)c12` [Example 463, (2~{R},5~{R},7~{R})-14-[5-[(1~{S},4~{R},5~{R})-4-amino-2-azabicyclo[3.2.1]octane-2-carbonyl]-7-methoxy-1-methyl-benzimidazol-2-yl]-11,11,18-trifluoro-2-methyl-3,13-diazatetracyclo[11.5.2.0^{5,7}.0^{16,20}] icosa-1(19),14,16(20),17-tetraen-4-one] is 29 nM; for `COc1cc(C(=O)N2C[C@H](N)[C@@H]3CC[C@H]2C3)cc2nc(-c3cc4ccc5nc4n3CCCCCc3c(F)cc(F)cc3C(=O)N[C@@H]5C)n(C)c12` [Example 894, (2~{R})-17-[5-[(1~{S},4~ {R},5~{R})-4-amino-2-azabicyclo[3.2.1]octane-2-carbonyl]-7-methoxy-1-methyl-benzimidazol-2-yl]-7,9-difluoro-2-methyl-3,16,22-triazatetracyclo [14.5.2.0^{5,10).0^{19,23}] tricosa-1(22),5(10),6,8,17, 19(23),20-heptaen-4-one] it is 72 nM.
The figure for `COc1cc(C(=O)N2[C@H]3CC[C@@H]2[C@H](N)C3)cc2nc(-c3cc4ccc5nc4n3C[C@H]3C[C@H]3CC[C@@H]3C[C@H]3C(=O)N[C@@H]5C)n(C)c12` [Example 142, (3~{S),5~{R},8~{R},10~{R},13~{R})-19-[5-[(1~{R},2~{R},4~{S})-2-amino-7-azabicyclo[2.2.1]heptane-7-carbonyl]-7-methoxy-1-methyl-benzimidazol-2-yl]-13-methyl-1,12,21-triazapentacyclo[12.5.2.0^{3,5}.0^{8,10}.0^ {17,20}]henicosa-14(21),15,17(20),18-tetraen-11-one] is 28 nM; for `COc1cc(C(=O)N2CCC[C@@H](N)C2)cc2nc(-c3cc4ccc5nc4n3CCCCCCC(=O)N[C@@H]5C)n(C3CC3)c12` [Example 231, (10~{R})-16-[5-[(3~{R})-3-aminopiperidine-1-carbonyl]-1-cyclopropyl-7-methoxy-benzimidazol-2-yl]-10-methyl-1,9,18-triazatricyclo[9.5.2.0^{14,17}]octadeca-11(18),12,14(17),15-tetraen-8-one] it is 84 nM.
Next, `COc1cc(C(=O)N2CC[C@@H](OC)[C@@H](N)C2)cc2nc(-c3cc4ccc5nc4n3CCCCC[C@@H]3C[C@@H]3C(=O)N[C@@H]5C)n(C)c12` [Example 524, (2~{R},5~{S},7~{R})-14-[5-[(3~{S},4~{R})-3-amino-4-methoxy-piperidine-1-carbonyl]-7-methoxy-1-methyl-benzimidazol-2-yl]-2-methyl-3,13,19-triazatetracyclo[11.5.2.0^ {5,7}.0^{16,20}]icosa-1(19),14,16(20),17-tetraen-4-one]: 388 nM.
On to `COc1cc(C(=O)N2[C@H]3CC[C@@H]2[C@H](N)C3)cc2nc(-c3cc4ccc5nc4n3CCCCCCn3ccc(n3)C(=O)N[C@@H]5C)c(C)n12` [Example 36, (2~{R})-16-[7-[(1~{R},2~{R},4~{S})-2-amino-7-azabicyclo[2.2.1]heptane-7-carbonyl]-5-methoxy-3-methyl-imidazo[1,2-a]pyridin-2-yl]-2-methyl-3,8,15,21,23-pentazatetracyclo[13.5.2.1^{5,8}.0^{18,22}] tricosa-1(21),5(23),6,16,18(22),19-hexaen-4-one], for which the IC50 was found to be 372 nM.

As a reminder, the IC50 is the concentration that gives 50% inhibition.

Values taken from patent US11976083B2, “Inhibitors of peptidylarginine deiminases” (Gilead Sciences, Inc., priority 2020, dated 2024).
